Experimental data as given in PubChem BioAssay AID248 (DTP/NCI, 2004).
“And” between values parts separate entries of the source, which are not always exact repeats. Equal values may be shown once. Inconclusive results and toxic doses are left out. Rule as the data show it: active = T/C of 150% or more; inactive = T/C below 125%.

Tested on: L1210 leukemia ip in BDF1 mice, survival T/C
Test: NCI In Vivo Anticancer Drug Screen. Data for tumor model L1210 Leukemia (intraperitoneal) in B6D2F1 (BDF1) mice
Details: endpoint: mean survival time, higher = longer survival
Outline: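 Tumor was transplanted into mice, which were then dosed with test compound or vehicle alone. Survival was recorded for each group, and the treated figure was expressed relative to the control figure.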

[1] = dose: 25.0 mg/kg/injection, schedule: Q01DX009 (ip), vehicle: saline with Tween-80
[2] = dose: 50.0 mg/kg/injection, schedule: Q01DX009 (ip), vehicle: saline with Tween-80
[3] = dose: 100.0 mg/kg/injection, schedule: Q01DX009 (ip), vehicle: saline with Tween-80
[4] = dose: 100.0 mg/kg/injection, schedule: Q04DX003 (ip), vehicle: saline with Tween-80
[5] = dose: 100.0 mg/kg/injection, schedule: Q04DX002 (ip), vehicle: Klucel (hydroxypropylcellulose) (HPC)
[6] = dose: 100.0 mg/kg/injection, schedule: Q01DX009 (ip), vehicle: Klucel (hydroxypropylcellulose) (HPC)
[7] = dose: 100.0 mg/kg/injection, schedule: Q04DX003 (ip), vehicle: Klucel (hydroxypropylcellulose) (HPC)
[8] = dose: 200.0 mg/kg/injection, schedule: Q01DX009 (ip), vehicle: Klucel (hydroxypropylcellulose) (HPC)
[9] = dose: 200.0 mg/kg/injection, schedule: Q04DX003 (ip), vehicle: Klucel (hydroxypropylcellulose) (HPC)
[10] = dose: 400.0 mg/kg/injection, schedule: Q04DX003 (ip), vehicle: Klucel (hydroxypropylcellulose) (HPC)

Measured: T/C

COC(=O)CCC1([N+](=O)[O-])CCCCC1
inactive: dose: 16.5 mg/kg/injection, schedule: Q01DX009 (ip), vehicle: saline with Tween-80 96 % of control | [1] 94 % of control | dose: 25.0 mg/kg/injection, schedule: Q04DX003 (ip), vehicle: saline with Tween-80 100 % of control | dose: 37.5 mg/kg/injection, schedule: Q01DX009 (ip), vehicle: saline with Tween-80 99 % of control | [2] 100 % of control | dose: 50.0 mg/kg/injection, schedule: Q04DX003 (ip), vehicle: saline with Tween-80 102 % of control | [3] 94 % of control | [4] 105 % of control

N=C(N)c1ccc(-c2[nH]c3cc(C(=N)N)ccc3c2-c2ccccc2)cc1
inactive: dose: 12.5 mg/kg/injection, schedule: Q04DX003 (ip), vehicle: saline 100 % of control and 110 % of control | dose: 25.0 mg/kg/injection, schedule: Q04DX003 (ip), vehicle: saline 100 % of control and 110 % of control | dose: 50.0 mg/kg/injection, schedule: Q04DX003 (ip), vehicle: saline 108 % of control and 112 % of control

O=C1C=C(c2ccccc2)C(=O)O1
inactive: [5] 95 % of control | dose: 200.0 mg/kg/injection, schedule: Q04DX002 (ip), vehicle: Klucel (hydroxypropylcellulose) (HPC) 92 % of control | dose: 400.0 mg/kg/injection, schedule: Q04DX002 (ip), vehicle: Klucel (hydroxypropylcellulose) (HPC) 90 % of control

CC1CC(C)/C(=N/N(C)C)C(C(O)CC2CC(=O)NC(=O)C2)C1 (centres undefined)
inactive: dose: 77.8 mg/kg/injection, schedule: Q01DX Z (ip), vehicle: carboxymethylcellulose (CMC) 106 % of control | dose: 116.7 mg/kg/injection, schedule: Q01DX Z (ip), vehicle: carboxymethylcellulose (CMC) 105 % of control | dose: 262.5 mg/kg/injection, schedule: Q01DX Z (ip), vehicle: carboxymethylcellulose (CMC) 119 % of control

COc1ccccc1NC(=S)N1CCC(CCCC2CCN(C(=S)Nc3ccccc3OC)CC2)CC1
inactive: [6] 92 % of control | [7] 91 % of control | [8] 87 % of control | [9] 89 % of control | [10] 88 % of control

O=S1(=O)C(c2ccccc2)=Cc2cccn2-c2ccccc21
inactive: [7] 95 % of control | [9] 104 % of control | [10] 98 % of control

CCSC1OC(C(COC(C)=O)OC(C)=O)C(OC(C)=O)C1NC(C)=S (centres undefined)
inactive: dose: 50.0 mg/kg/injection, schedule: Q01DX001 (ip), vehicle: saline 97 % of control | dose: 100.0 mg/kg/injection, schedule: Q01DX001 (ip), vehicle: saline 103 % of control | dose: 200.0 mg/kg/injection, schedule: Q01DX001 (ip), vehicle: saline 103 % of control | dose: 400.0 mg/kg/injection, schedule: Q01DX001 (ip), vehicle: saline 100 % of control

O=[N+]([O-])c1cccn2ncnc12
inactive: dose: 5.0 mg/kg/injection, schedule: Q01DX001 (ip), vehicle: acetone 104 % of control | dose: 10.0 mg/kg/injection, schedule: Q01DX001 (ip), vehicle: acetone 106 % of control | dose: 20.0 mg/kg/injection, schedule: Q01DX001 (ip), vehicle: acetone 96 % of control | dose: 40.0 mg/kg/injection, schedule: Q01DX001 (ip), vehicle: acetone 96 % of control | dose: 80.0 mg/kg/injection, schedule: Q01DX001 (ip), vehicle: acetone 107 % of control

O=[N+]([O-])c1ccccc1N=P(c1ccccc1)(c1ccccc1)c1ccccc1
inactive: dose: 50.0 mg/kg/injection, schedule: Q01DX009 (ip), vehicle: DMSO 91 % of control | dose: 100.0 mg/kg/injection, schedule: Q01DX009 (ip), vehicle: DMSO 88 % of control | dose: 100.0 mg/kg/injection, schedule: Q04DX003 (ip), vehicle: DMSO 93 % of control | dose: 200.0 mg/kg/injection, schedule: Q04DX003 (ip), vehicle: DMSO 93 % of control

CCOC(=O)/C(C#N)=C\c1ccc2n1Cc1cc3c(cc1N(C(C)=O)C2)OCO3
inactive: dose: 25.0 mg/kg/injection, schedule: Q04DX002 (ip), vehicle: Klucel (hydroxypropylcellulose) (HPC) 102 % of control | dose: 50.0 mg/kg/injection, schedule: Q04DX002 (ip), vehicle: Klucel (hydroxypropylcellulose) (HPC) 95 % of control | [5] 98 % of control

COC(=O)c1ccccc1Nc1ccccc1[N+](=O)[O-]
inactive: dose: 75.0 mg/kg/injection, schedule: Q04DX003 (ip), vehicle: Klucel (hydroxypropylcellulose) (HPC) 101 % of control | dose: 100.0 mg/kg/injection, schedule: Q01DX001 (ip), vehicle: Klucel (hydroxypropylcellulose) (HPC) 100 % of control | dose: 150.0 mg/kg/injection, schedule: Q04DX003 (ip), vehicle: Klucel (hydroxypropylcellulose) (HPC) 87 % of control | dose: 200.0 mg/kg/injection, schedule: Q01DX001 (ip), vehicle: Klucel (hydroxypropylcellulose) (HPC) 95 % of control | dose: 300.0 mg/kg/injection, schedule: Q04DX003 (ip), vehicle: Klucel (hydroxypropylcellulose) (HPC) 90 % of control | dose: 400.0 mg/kg/injection, schedule: Q01DX001 (ip), vehicle: Klucel (hydroxypropylcellulose) (HPC) 113 % of control

CCCCCCC12CCC(O)C1(CCCCCCC(=O)O)O2 (centres undefined)
inactive: dose: 50.0 mg/kg/injection, schedule: Q04DX002 (ip), vehicle: saline 95 % of control | dose: 100.0 mg/kg/injection, schedule: Q04DX002 (ip), vehicle: saline 102 % of control | dose: 200.0 mg/kg/injection, schedule: Q04DX002 (ip), vehicle: saline 91 % of control

CCCCCCCCCCCCCCCCCCc1ccc(O)cc1O
inactive: [4] 89 % of control | dose: 200.0 mg/kg/injection, schedule: Q04DX003 (ip), vehicle: saline with Tween-80 92 % of control | dose: 400.0 mg/kg/injection, schedule: Q04DX003 (ip), vehicle: saline with Tween-80 86 % of control

O=C(O)c1cccc2c1ccc1ccccc12
inactive: dose: 75.0 mg/kg/injection, schedule: Q04DX003 (ip), vehicle: saline 104 % of control | dose: 150.0 mg/kg/injection, schedule: Q04DX003 (ip), vehicle: saline 102 % of control | dose: 300.0 mg/kg/injection, schedule: Q04DX003 (ip), vehicle: saline 100 % of control

COC(=O)N/N=C/C=C/c1ccccc1
inactive: [1] 101 % of control | [2] 105 % of control | [3] 97 % of control

C=C(C)COc1c(C)c(C)c(OCC(=C)C)c(C)c1C
inactive: dose: 100.0 mg/kg/injection, schedule: Q01DX001 (ip), vehicle: DMSO 89 % of control | dose: 400.0 mg/kg/injection, schedule: Q01DX001 (ip), vehicle: DMSO 94 % of control

Oc1[nH]c(=S)sc1C1=c2ccccc2=NCC1
inactive: dose: 44.4 mg/kg/injection, schedule: Q01DX001 (ip), vehicle: carboxymethylcellulose (CMC) 93 % of control and 94 % of control | dose: 66.7 mg/kg/injection, schedule: Q01DX001 (ip), vehicle: carboxymethylcellulose (CMC) 96 % of control and 106 % of control | dose: 100.0 mg/kg/injection, schedule: Q01DX001 (ip), vehicle: carboxymethylcellulose (CMC) 98 % of control and 107 % of control | dose: 150.0 mg/kg/injection, schedule: Q01DX001 (ip), vehicle: carboxymethylcellulose (CMC) 98 % of control and 100 % of control

C/C(=N\O)c1ccccc1C
inactive: [7] 101 % of control | [9] 106 % of control | [10] 93 % of control

COc1ccc(Cl)cc1NC(=O)c1cccc(Cl)c1
inactive: [6] 110 % of control | [8] 110 % of control | dose: 400.0 mg/kg/injection, schedule: Q01DX009 (ip), vehicle: Klucel (hydroxypropylcellulose) (HPC) 104 % of control

O=c1[nH]cnc2nc(-c3cccc([N+](=O)[O-])c3)[nH]c12
inactive: dose: 100.0 mg/kg/injection, schedule: Q04DX003 (ip), vehicle: gum acacia 102 % of control | dose: 200.0 mg/kg/injection, schedule: Q04DX003 (ip), vehicle: gum acacia 92 % of control | dose: 400.0 mg/kg/injection, schedule: Q04DX003 (ip), vehicle: gum acacia 96 % of control
